Tested on: Cholesterol
Assay: Fasting lipid panel: total cholesterol, CHASE clinical study
Format: in vivo, human
Conditions: for Cholesterol V2 to V6 % Change Max / Cholesterol V2 to V6 % Change Mean (SD) / Cholesterol V2 to V6 % Change Median / Cholesterol V2 to V6 % Change Min / Cholesterol V2 to V6 Change Max / Cholesterol V2 to V6 Change Mean (SD) / Cholesterol V2 to V6 Change Median / Cholesterol V2 to V6 Change Min: baseline to Week 12
Text: Blood samples shall be obtained under fasted conditions for a lipid panel at V2, V4, V6, V7, and V8. This panel shall include total cholesterol, LDL-C, VLDL-C, HDL-C, and triglycerides. A minimum eight-hour fast (water allowed) is required for the lipid panel.
Fasting lipid profiles and fasting chemistry panels may be obtained within the visit time window on a day separate from the scheduled office visit, within two days before or after the other study procedures. A minimum of eight hours fasted (water allowed ad lib) is required.
Table 7M provides the changes in lipid levels (mg/dL) (V2 to V6) for subjects.

[1] = Group X 12 mg BID, V2 baseline pre-dose, all subjects
[2] = Group X 12 mg BID, V2 baseline pre-dose, subjects with hyperlipidemia
[3] = Group X 12 mg BID, V6 Week 12, all subjects
[4] = Group X 12 mg BID, V6 Week 12, subjects with hyperlipidemia
[5] = Group X 12 mg BID, all subjects
[6] = Group X 12 mg BID, subjects with hyperlipidemia
[7] = Group Z 48 mg BID, V2 baseline pre-dose, all subjects
[8] = Group Z 48 mg BID, V2 baseline pre-dose, subjects with hyperlipidemia
[9] = Group Z 48 mg BID, V6 Week 12, all subjects
[10] = Group Z 48 mg BID, V6 Week 12, subjects with hyperlipidemia
[11] = Group Z 48 mg BID, all subjects
[12] = Group Z 48 mg BID, subjects with hyperlipidemia

## CC1=C(/C=C/C(C)=C/C=C/C(C)=C/C=C/C=C(C)/C=C/C=C(C)/C=C/C2=C(C)C(=O)C(O)CC2(C)C)C(C)(C)CC(O)C1=O (stereo not shown) [Astaxanthin, astaxanthin]
[1]
  Cholesterol Max: 342.0 mg/dL
  Cholesterol Mean (SD): 192.0 (65.49) mg/dL
  Cholesterol Median: 180.0 mg/dL
  Cholesterol Min: 113. mg/dL
[2]
  Cholesterol Max: 342.0 mg/dL
  Cholesterol Mean (SD): 184.5 (73.91) mg/dL
  Cholesterol Median: 164.0 mg/dL
  Cholesterol Min: 113.0 mg/dL
[3]
  Cholesterol Max: 339.0 mg/dL
  Cholesterol Mean (SD): 182.6 (70.21) mg/dL
  Cholesterol Median: 163.0 mg/dL
  Cholesterol Min: 117.0 mg/dL
[4]
  Cholesterol Max: 339.0 mg/dL
  Cholesterol Mean (SD): 170.3 (74.95) mg/dL
  Cholesterol Median: 137.5 mg/dL
  Cholesterol Min: 117.0 mg/dL
[5]
  Cholesterol V2 to V6 % Change Max: 6.67%
  Cholesterol V2 to V6 % Change Mean (SD): −5.34 (10.55) %
  Cholesterol V2 to V6 % Change Median: −4.90%
  Cholesterol V2 to V6 % Change Min: −25.0%
  Cholesterol V2 to V6 Change Max: 17.00 mg/dL
  Cholesterol V2 to V6 Change Mean (SD): −9.45 (18.08) mg/dL
  Cholesterol V2 to V6 Change Median: -7.00 mg/dL
  Cholesterol V2 to V6 Change Min: -39.0 mg/dL
[6]
  Cholesterol V2 to V6 % Change Max: 6.20%
  Cholesterol V2 to V6 % Change Mean (SD): −7.65 (11.10) %
  Cholesterol V2 to V6 % Change Median: −6.92%
  Cholesterol V2 to V6 % Change Min: −25.0%
  Cholesterol V2 to V6 Change Max: 8.00 mg/dL
  Cholesterol V2 to V6 Change Mean (SD): −14.3 (17.60) mg/dL
  Cholesterol V2 to V6 Change Median: -14.0 mg/dL
  Cholesterol V2 to V6 Change Min: -39.0 mg/dL
[7]
  Cholesterol Max: 316.0 mg/dL
  Cholesterol Mean (SD): 195.1 (57.82) mg/dL
  Cholesterol Median: 190.0 mg/dL
  Cholesterol Min: 121.0 mg/dL
[8]
  Cholesterol Max: 316.0 mg/dL
  Cholesterol Mean (SD): 189.7 (58.32) mg/dL
  Cholesterol Median: 173.0 mg/dL
  Cholesterol Min: 121.0 mg/dL
[9]
  Cholesterol Max: 284.0 mg/dL
  Cholesterol Mean (SD): 169.7 (45.52) mg/dL
  Cholesterol Median: 160.5 mg/dL
  Cholesterol Min: 104.0 mg/dL
[10]
  Cholesterol Max: 284.0 mg/dL
  Cholesterol Mean (SD): 161.9 (46.52) mg/dL
  Cholesterol Median: 151.0 mg/dL
  Cholesterol Min: 104.0 mg/dL
[11]
  Cholesterol V2 to V6 % Change Max: 15.86%
  Cholesterol V2 to V6 % Change Mean (SD): −8.52 (14.73) %
  Cholesterol V2 to V6 % Change Median: −8.29%
  Cholesterol V2 to V6 % Change Min: −38.0%
  Cholesterol V2 to V6 Change Max: 32.00 mg/dL
  Cholesterol V2 to V6 Change Mean (SD): −18.6 (31.99) mg/dL
  Cholesterol V2 to V6 Change Median: -13.5 mg/dL
  Cholesterol V2 to V6 Change Min: -92.0 mg/dL
[12]
  Cholesterol V2 to V6 % Change Max: 15.86%
  Cholesterol V2 to V6 % Change Mean (SD): −9.11 (16.06) %
  Cholesterol V2 to V6 % Change Median: −8.48%
  Cholesterol V2 to V6 % Change Min: −38.0%
  Cholesterol V2 to V6 Change Max: 32.00 mg/dL
  Cholesterol V2 to V6 Change Mean (SD): −18.8 (33.97) mg/dL
  Cholesterol V2 to V6 Change Median: -13.5 mg/dL
  Cholesterol V2 to V6 Change Min: -92.0 mg/dL
